`O=C(O)c1ccc(C#Cc2ccc(OCC(O)CO)c(C34CC5CC(CC(C5)C3)C4)c2)cc1` (stereo not drawn): the melting point is 300 to 302 °C.

As to `C[C@H](NCc1ccc(OCc2ccccc2F)c(Cc2ccccc2F)c1)C(N)=O`, the melting point came to 161 °C.

With `O=S(=O)(NCC(O)(Cn1cncn1)c1ccc(F)cc1F)c1ccc(F)cc1` (stereo not drawn), the melting point is 140 to 146 °C.

For `O=CC(=Cc1cccc(Cl)c1)C(C=O)=Cc1cccc(Cl)c1`, the melting point was 107 to 108 °C.

Molecule `CC1(C)Oc2cccc(S(N)(=O)=O)c2O1` gave a melting point of 100 to 112 °C.

With `CN1CCN(CCCNc2ncc3cc(-c4c(Cl)cccc4Cl)c(NC(=O)Nc4ccc(C(F)(F)F)cc4)nc3n2)CC1`, the melting point lay in the range of 146 to 151 °C.

`CC#CCOc1ccc(S(=O)(=O)N(C)C(CCCSc2ccc(Cl)cc2)(NC)C(=O)O)cc1` (stereo not drawn) returned a melting point of 143 to 145 °C.

In turn, `O=c1[nH]nc(-c2ccccc2)c(-c2ccccc2)c1S(=O)(=O)c1ccccc1` yielded a melting point of 254 to 256 °C.

`Cc1cnc(NCCc2ccccn2)c(=O)n1NC(=O)CCc1cc(C(F)(F)F)ccc1F` registered a melting point of 181 to 184 °C.

Consider `Cc1noc(NC(=O)N2CCN(c3nccc(-c4ccc(F)c(F)c4)n3)CC2)c1C`, for which the melting point lay in the range of 214 to 215 °C.

Take `CC(C)(C)C(NC(=O)c1ccc(Cl)cc1)Nc1c(Nc2cccnc2F)c(=O)c1=O` (stereo not drawn): the melting point fell in the range of 231 to 234 °C.

`CC(C)Oc1c(C(=O)Nc2nnn[nH]2)sc2c1CS(=O)(=O)CC2` gave a melting point of 230 to 232 °C.

Molecule `CC(CC(=O)NC(C)(C)C#CCl)Oc1cncc(Cl)c1` (stereo not drawn) showed a melting point of 78 to 82 °C.

With `CC(CCc1nnn[nH]1)Oc1cccc(OCc2ccc3ccccc3n2)c1` (stereo not drawn), the melting point is 147 to 149 °C.

With `COc1ccc2c(c1)c(C(=O)OCc1ccccc1)nn2Cc1ccccc1`, the melting point is 107 to 109 °C.

Take `CCCc1c(OCCCCCCc2cccc(O)c2O)ccc(C(=O)O)c1O`: the melting point was in the range of 147 to 150 °C.

`CC(=O)c1cccc2ccc(CC(=O)O)cc12` displayed a melting point of 131 to 132 °C.

As to `CC(C)c1nn(-c2ccc(C(F)(F)F)cc2)cc1COc1cccc(CC(=O)O)c1`, the melting point lay in the range of 92 to 93 °C.

Consider `O=C(O)C1(CCCCCCCCCCCCC2(C(=O)NCCO)CC2)CC1`, for which the melting point lay in the range of 81.1 to 83.8 °C.

In turn, `Cc1cccc(NC(=O)NCC(=O)N(CC(=O)OC(C)(C)C)c2ccc3c(c2)OCO3)c1` showed a melting point of 142 °C.

For `O=C1Cc2c([nH]c3ccccc23)-c2ncccc2N1`, the melting point was over 330 °C.

For `CCOc1nc2c(C)sc(C(=O)OC)c2n1Cc1ccc(-c2ccccc2)c(-c2nc(=O)o[nH]2)c1`, the melting point was in the range of 208 to 210 °C.

Molecule `CC(C)(C)CC(C)(C)c1ccc(O)c(-n2nc3ccc(C(F)(F)F)cc3n2)c1` gave a melting point of 80 to 81 °C.

The molecule `CCOC(=O)c1c(-c2ccc(F)cc2)c(-c2ccc(F)cc2)c(C=O)n1C(C)C` registered a melting point of 92 to 94 °C.

`CON=C(C)c1ccc(C(=O)Nc2ccc(C(C)(C)C)cc2)cc1`: the melting point fell in the range of 154 to 155 °C.

Molecule `C=CCn1c(C)c(C)c2cnnc(CCc3ccc(F)cc3)c21` yielded a melting point of 123 to 124 °C.

In the case of `CC1CCCC=C1c1ccc(C(=O)O)cc1` (stereo not drawn), the melting point lay in the range of 146 to 147 °C.

Turning to `CCCCCS(=O)(=O)NC(=O)/C=C/c1ccc(OCCC(C)(C)O)cc1Oc1ncc(C(F)(F)F)cc1Cl`, the melting point turned out to be 136 °C.

In turn, `CC(C)c1cc(C(C)C)c2c(c1)C1(O)C(=O)c3ccccc3C1(O)O2` (stereo not drawn) had a melting point of 205 to 206 °C.

Take `CC(C)(C)c1ccc(Oc2nc(Nc3cccc(CO)c3)nc(Oc3ccccc3)n2)cc1`: the melting point was 47 to 50 °C.

On to `CCOc1ccc(C(=O)c2c(N)sc3c2CCN(C(=O)OCc2ccccc2)C3)cc1`, for which the melting point fell in the range of 197 to 198 °C.

The molecule `CCc1ccc2c(c1)C1CN(C(=O)CCC(=O)c3ccc(F)cc3)CCC1N2` (stereo not drawn) gave a melting point of 120 to 124 °C.

As for `COC(=O)c1sc2c(c1N)c1ccccc1c(=O)n2-c1ccccc1Br`, the melting point was in the range of 214 to 216 °C.

In the case of `O=C(O)c1ccc(CSc2nnc(-c3ccc4c(c3)CCO4)o2)cc1`, the melting point lay in the range of 203 to 205 °C.

`CC1Oc2ccc(CCl)cc2NC1=O` (stereo not drawn) displayed a melting point of 162 to 169 °C.

Molecule `CCCCCC(O)CCCN(Cc1cccc(C=CC(=O)O)c1)S(C)(=O)=O` (stereo not drawn) had a melting point of 105 °C.

Molecule `NCCCc1cccnc1C(N)=O` came in with a melting point of 153 to 156 °C.

`COC(=O)c1cc(O)c2cc[nH]c2c1` displayed a melting point of 160 to 162 °C.

For `Cc1c(C=O)c2cnnc(OCc3ccccc3)c2n1Cc1ccccc1`, the melting point lay in the range of 147 to 149 °C.

In the case of `CC1OC2c3cc(F)ccc3N3CCC2(CC3)O1` (stereo not drawn), the melting point lay in the range of 103 to 107 °C.

On to `CCOC(=O)c1nc2scc(NC(=O)Cc3ccccc3)c2c(=O)[nH]1`, for which the melting point amounted to 237 °C.

Take `Fc1cnccc1Nn1ccc2cc(OCc3ccccc3)ccc21`: the melting point is 140 °C.

On to `CCN(CC)CC/C=C/c1ccc2c(Nc3ccc(Sc4nccn4C)c(Cl)c3)c(C#N)cnc2c1`, for which the melting point is 200 to 210 °C.

In the case of `COc1nc(OC)nc(N(C(=O)Oc2ccccc2)C(=O)Oc2ccccc2)n1`, the melting point was 125 °C.

The molecule `CCNC(=O)c1c(Cl)cc(Cl)cc1[Si](C)(C)C` showed a melting point of 101 to 103 °C.

Consider `CC(C)n1nc(-c2ncc(O)nc2-c2ccccc2)ccc1=O`, for which the melting point was 225 to 227 °C.

`O=C1Cc2cccc(Sc3ccccc3)c2N1` yielded a melting point of 160 to 161 °C.

For `CN1CN(C(=O)c2c(F)cccc2F)C(=O)N(c2ccc(SC(F)(F)F)cc2F)C1`, the melting point lay within 92 to 94 °C.

In turn, `Cc1nc2ccnc(-c3ccccc3)n2n1` displayed a melting point of 68 to 71 °C.

On to `CN(C)C=Nc1ccc(-c2ccc(C(F)(F)F)cc2)cn1`, for which the melting point worked out at 154 °C.

Molecule `COC(=O)c1cn2c(-c3ccc4ccccc4c3)csc2n1` had a melting point of 187 to 188 °C.

Molecule `Cc1oc(-c2ccccc2)nc1CCOc1ccc(COc2nn(C)cc2CC(=O)O)cc1` registered a melting point of 148 to 149 °C.

In turn, `Cc1cccc(N2C(=S)SCC2(C)O)n1` (stereo not drawn) had a melting point of 150 to 153 °C.

`CN(C)CC=CC(=O)Nc1cc2c(Nc3cc(Cl)c(Cl)cc3F)ncnc2cc1OCCOCCOCCOCCF`: the melting point was 119 to 120 °C.

On to `CN(C)C(=O)C(CCO)C1CCc2[nH]c3ccccc3c21` (stereo not drawn), for which the melting point lay within 135 to 137 °C.

Molecule `COCC1CN(c2ccc(C3=CCCCC3)cc2)C(=O)O1` (racemic) showed a melting point of 106 to 108 °C.

`CCCCC(NC(=O)C(CC(C)C)NC(=O)c1ccc2ccccc2c1)C(=O)CSCc1ccco1` (stereo not drawn) came in with a melting point of 97 to 99 °C.

On to `COC(=O)CN(C)c1cccc(Br)n1`, for which the melting point lay in the range of 47 to 48 °C.

On to `COc1cccc(C(=O)O)c1OCc1nc(-c2ccco2)oc1C`, for which the melting point was in the range of 198 to 199 °C.

For the molecule `CN(Cc1cccc2c1CN(C1CCC(=O)NC1=O)C2=O)C(=O)Nc1cccc(Cl)c1` (stereo not drawn), the melting point lay within 193 to 195 °C.

Take `CCCCOc1c(CNC(=O)OC(C)(C)C)n(CC(C)(C)C)c(=O)c2cc(F)ccc12`: the melting point fell in the range of 149 to 150 °C.

`CCNC(=O)[C@H](C)NC(=O)[C@H](C)NC(=O)CC` returned a melting point of 289 to 291 °C.

As to `COCCCn1c(C(N)=O)cc2c3c(c(-c4ccccc4Cl)cc21)C(=O)NC3=O`, the melting point lay within 260 to 261 °C.

`Cn1ccnc1C(=O)c1[nH]c2ccc(Cl)cc2c1CC(=O)O` registered a melting point of 230 to 233 °C.

Consider `COc1cc(OC(=O)C(C)C)c2c(=O)c(OC)c(-c3ccc(OC(=O)C(C)(C)C)c(OC)c3)oc2c1`, for which the melting point lay in the range of 151 to 152 °C.

With `O=C1c2cnc(N3CCN(Cc4ccccc4)CC3)nc2CN1C1CCCCC1`, the melting point is 176 to 178 °C.

Molecule `CNc1nccc(-c2c(-c3ccc(F)cc3)ccn2C2CCNCC2)n1` returned a melting point of 189 to 191 °C.

Molecule `CCOC(=O)c1cc2c(nc(C)n2C)c2c1CCC(OC)(c1ccccc1C)O2` (stereo not drawn) registered a melting point of 198 °C.

On to `CCOC(=O)C(C)NC(=O)N(C)N` (stereo not drawn), for which the melting point was 77 to 79.5 °C.

With `Cc1sc(-c2ccc(C(F)(F)F)cc2)nc1O`, the melting point was in the range of 232 to 233 °C.

`CCN1C2=C(CSC2)C(=O)Nc2ccccc21` had a melting point of 195 to 197 °C.

The molecule `N#CCCCOc1ccc(-c2nnc(CSCCOc3ccccc3)o2)cc1` came in with a melting point of 67 to 68 °C.

`CCOC(=O)C1CN(C(=O)c2cc(OC)c(OC)c(OC)c2)CCN1` (stereo not drawn): the melting point fell in the range of 114 to 115 °C.

In turn, `O=c1c(-c2n[nH]c3ccccc23)coc2ccccc12` yielded a melting point of 159 to 160 °C.

Consider `Cn1ncnc1-c1cc(S(C)=O)c2[nH]c(=O)ccc2c1` (stereo not drawn), for which the melting point is 224 to 227 °C.

As to `Cc1cccc(-c2c(Cl)ccc3c2C=C(C(=O)O)C(C(F)(F)F)O3)c1` (stereo not drawn), the melting point fell in the range of 222 to 224 °C.

`CCCc1nc(C(O)C(C)C)c(C#N)n1Cc1ccc(-c2ccccc2-c2nnnn2C(c2ccccc2)(c2ccccc2)c2ccccc2)cc1` (stereo not drawn): the melting point was 154 to 155 °C.

In the case of `CCCCCCCCCCOCC(COCCCCCCCCCC)(CC(=O)O)CC(=O)O`, the melting point lay in the range of 68 to 71 °C.

`CCCCn1c(=O)c2c(ncn2S(=O)(=O)c2cccc3ccccc23)n(CCCC)c1=O` came in with a melting point of 135 to 136 °C.

The molecule `Cc1cc2c(cc1C)C(=O)CCC2` gave a melting point of 47 to 48 °C.

In the case of `CCOC(=O)c1cnn(-c2ccc(OCC(C)(C)C(=O)OC)c(C#N)c2)c1`, the melting point fell in the range of 95 to 96 °C.

`CCOC(=O)C1=C(C)NC(COC(=O)c2ccccc2)=C(C(=O)OCC)C1c1ccccc1[N+](=O)[O-]` (stereo not drawn) gave a melting point of 156 to 157 °C.

In turn, `O=Cc1cc(=O)n2ccsc2n1` returned a melting point of 184 to 186 °C.

Molecule `CC(=O)Nc1nc(/C=C/C(=O)N2CCN(C(=O)c3cc(C(F)(F)F)cc(C(F)(F)F)c3)[C@H](Cc3c[nH]c4ccccc34)C2)cs1` returned a melting point of 167 to 172 °C.

For `Cc1cccc2c(=O)[nH]c(N3CCC(N(C)C)CC3)cc12`, the melting point fell in the range of 217 to 218 °C.

The molecule `COc1ccc(-c2nc(C(O)(C(F)(F)F)C(F)(F)F)[nH]c2-c2ccc(OC)cc2)cc1` came in with a melting point of 144 to 146 °C.

Molecule `O=c1c2cccc(F)c2nc2sccn12` returned a melting point of 187 to 189 °C.

`COc1cc2c(c(Cl)c1Cl)C(=O)C(CCCCl)(CCC(C)=O)C2` (stereo not drawn): the melting point was 120 to 122 °C.

One may read the melting point as the temperature, or range, at which the solid turns liquid.

The values above are taken from a melting point compilation (Tetko et al.; mined from patent text by program, amines drawn as free bases though some values may be those of a salt).
